Experiment [1] has as its system platelet aggregation (PRP). Briefly: Platelet aggregation in PRP (turbidometric aggregometer). Type of experiment: cell-based, human. The note with it: for Platelet agglutination/aggregation induced: different FC concentrations, ristocetin 1 mg/ml. The protocol: Aggregation was studied with PRP using a turbidometric aggregometer as described in the Materials and Methods. A: effect of different concentrations of FC and ristocetin 1.0 mg/ml. B: effect of 40 μM FC in the presence of the aggregation antagonist RGDS peptide. C: effect of 40 μM FC in the presence of the cell-permeable 14-3-3 competitor MPAC peptide.
Washed platelets were prepared from platelet-rich plasma (PRP) obtained from healthy donors who had not taken medication for at least 9 days before bleeding. Preparation of PRP was performed as described by Dai et al. (2005).
PRPs were preincubated at 37° C. with different FC concentrations and, when indicated 0.1 mM MPaC or 0.75 mM RGDS. Aggregation was measured using a turbidometric platelet aggregometer Chrono-log 560 CA (Chrono-log Corporation, Pa., USA). 500 μl PRP were placed in a cuvette at 37° C. under continuous stirring at 1000 rpm. Aggregation was expressed as percentage of change in light transmission, with the value for the blank sample (PPP, Platelet-Poor Plasma) set at 100% and 0% for PRP.
To determine whether the FC-promoted binding of platelets to vWF results in platelet aggregation, the effect of FC on platelet functionality was assayed using an optical aggregometer. […] To determine whether the FC effect involves 14-3-3 proteins, the MPAC peptide was tested in FC-induced platelet agglutination.

Experiment [2] addresses T1, 14-3-3 proteins / bL15Vp peptide (last 15 amino acids of the H+-ATPase) (Zea mays, UniProt P49106).
T1 construct: GST (pGEX-2TK, with protein kinase A site at the junction, 32P-labelled) (N); made in house; host or cells: E. coli (14-3-3); peptide synthesized by Neosystem
T1 sequence (P49106 1-261): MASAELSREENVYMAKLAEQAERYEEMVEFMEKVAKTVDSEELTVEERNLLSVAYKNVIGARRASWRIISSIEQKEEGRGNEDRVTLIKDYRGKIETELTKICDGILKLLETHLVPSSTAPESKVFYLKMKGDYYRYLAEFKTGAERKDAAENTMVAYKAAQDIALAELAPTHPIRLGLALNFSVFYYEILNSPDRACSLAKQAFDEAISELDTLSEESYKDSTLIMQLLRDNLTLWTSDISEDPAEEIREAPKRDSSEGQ
Briefly: Binding of 32P-labelled 14-3-3 (GF14-6) to resin-bound bL15Vp phosphopeptide. The note with it: 10 μM FC; resin-bound radioactivity. As to the method: (§1) Peptides were immobilized onto streptavidin-agarose resin and incubated with ^32P-labelled 14-3-3 in the absence or in the presence of 10 μM FC. After washing, radioactivity associated with the resin was measured. Data are the mean of three independent experiments.
(§2) 0.5 nmol of biotinylated peptides were immobilized onto 40 μl of streptavidin-agarose resin (Sigma-Aldrich) and incubated in 50 μl of buffer H with 3 μg of ^32P-labelled GF14-6 (1.4 kBq/μg) for 60 min at room temperature in the absence or in the presence of 10 μM FC. Resin was then centrifuged at 2000×g for 5 min and washed three times with 1 ml of buffer H. Resin-bound radioactivity was measured in a liquid scintillation β-counter Packard Tri Carb 2100TR (Canberra, Australia).
(§3) A phosphorylated biotinyl-peptide (bD15Lp), reproducing the last 15 amino acid residues of GPIbα, and containing the 14-3-3 binding sequence, was used in interaction studies with 14-3-3 proteins to verify the ability of FC to stimulate the interaction. The unphosphorylated corresponding peptide ([…]) and peptides reproducing the last 15 amino acids of the H^+-ATPase in unphosphorylated (bL15V) and phosphorylated form (bL15Vp) were used as control.
(§4) The peptides were immobilized onto a streptavidin-agarose resin and incubated with ^32P-labelled 14-3-3 proteins.

Experiment [3] has as its target T2, 14-3-3 proteins / GPIbα (UniProt P07359+P49106).
T2 construct: GST (pGEX-2TK, with protein kinase A site at the junction, 32P-labelled) (N); made in house; host or cells: E. coli (14-3-3 probe); GPIbα endogenous, from boiled human platelet suspension
Put plainly: Overlay assay of 32P-14-3-3 on blotted platelet proteins. The class given is binding, human. The note with it: 10 μM FC; autoradiography. The protocol: A: SDS-PAGE profile of platelet proteins. B: immunodecoration of GPIbα with anti-GPIbα ([…]) antidoby. C: overlay assay. Maize plasma membrane proteins (lanes 1, positive control) or platelet proteins (lanes 2) were separated by SDS-PAGE, blotted onto nitrocellulose membrane, incubated with ^32P-14-3-3 in the absence (−FC) or in the presence (+FC) of 10 μM FC and subjected to autoradiography as described in the Materials and Methods.
SDS-PAGE was performed as described by Laemmli (1970), in a Mini Protean apparatus (Bio-Rad). The overlay assay was carried out according to Fullone et al. (1998), with minor modifications. The GST-fused 14-3-3 was labelled with [γ^32P]-ATP on cAMP-dependent protein kinase phosphorylation site present at junction between GST and the cloned protein, ^32P-labelled GF14-6 was used as probe in the overlay experiments. 30 μl of platelet suspension (2.0×10^8/mi) was boiled in Laemmli loading buffer, separated on SDS-PAGE and blotted on nitrocellulose membrane by semidry electroblotting. 20 μg of maize plasma membrane proteins were used as positive control. […] Nitrocellulose membrane was extensively washed with buffer HT and radioactivity detected by autoradiography. […]

Experiment [4] concerns isolated human platelets. Put plainly: Binding of [3H]FC to isolated human platelets. The note with it: 10 nM [3H]FC, displaced by 10 μM unlabelled FC; 1 h at 37° C. The protocol: 30 μl of platelet suspension (2.0×10^8/ml) were incubated for 1 h at 37° C. with 5×10^5 dpm [^3H]FC in 100 μl PBS containing 5 mM MgCl2. Where indicated, 10 μM cold FC was added (+FC). Platelets were then sedimented by centrifugation and radioactivity measured by scintillation counting.
30 μl of platelet suspension (2.0×10^8/ml) were incubated for 1 h at 37° C. with 5×10^5 dpm [^3H]FC in 100 μl PBS containing 5 mM MgCl2. To calculate specific binding, control sample was incubated with 10 μM FC. Platelets were centrifuged at 2000 g for 4 min in a refrigerated microcentrifuge and extensively washed in PBS containing 5 mM MgCl2. 500 μl perchloric acid was then added and radioactivity was measured in a liquid scintillation β-counter.
In order to verify whether a FC binding activity is present in purified human platelets, a [^3H]FC analogue (Ballio et al., 1980) was utilised. 30 μl platelet suspension in PBS (2.0×10^8/ml) were incubated with 10 nM [^3H]FC, and after several washings, the platelet-associated radioactivity was measured. The specific [^3H]FC binding was evaluated by adding a saturating concentration of unlabelled FC.

In experiment [5] the test system is platelet adhesion to immobilized vWF. Put plainly: Platelet adhesion to immobilized vWF. The note with it: platelets pre-incubated with FC. Type of experiment: cell-based, human. As to the method:
90 μl platelet suspension was incubated with purified vWF immobilized onto polystyrene wells. After washings, adherent platelets were determined measuring the endogenous acid phosphatase activity. +FC, platelets previously treated with 40 μM FC; +ADP, incubation in the presence of 50 μM ADP.
Platelet adhesion to immobilized vWF was performed in polystyrene microtitre plate wells as described by Lu et al. (1994) with minor modifications. Briefly, plate wells were coated overnight at 4° C. with 100 μl 15 μg/ml purified vWF and 15 μg/ml BSA. After three washes with PBS unbound sites were saturated with 200 μl of 2 mg/ml BSA for 2 h at RT. After three washings with PBS, wells were incubated with 90 μl platelet suspension (2.0×10^8/ml) previously treated with 40 μM FC. Where indicated, wells were preloaded with 50 μM ADP. After 1 h incubation at RT, non-adherent platelets were removed by 7 washings with a buffer 10 mM Hepes containing 145 mM NaCl, 5 mM KCl, 1 mM MgCl2, 2 mM CaCl2, 10 mM glucose, 3.5 mg/ml BSA, pH 7.35. The number of vWF-bound platelet was calculated by measurement of endogenous acid phosphatase using 130 μl/well of developing buffer (10 mM p-nitrophenyl phosphate, 0.1% Triton X-100, 50 mM sodium citrate, pH 5.5). After 1 h at 37° C. incubation, the reaction was stopped by the addition of 10 μl of 1 M NaOH/well and the plates were read at 405 nm on an automated plate reader. […]

Experiment [6] addresses T3, 14-3-3 proteins / bD15Lp peptide (last 15 amino acid residues of GPIbα) (UniProt P07359+P49106).
T3 construct: GST (pGEX-2TK, with protein kinase A site at the junction, 32P-labelled) (N); made in house; host or cells: E. coli (14-3-3); peptide synthesized by Neosystem
Put plainly: Binding of 32P-labelled 14-3-3 (GF14-6) to resin-bound bD15Lp phosphopeptide. The note with it: 10 μM FC; resin-bound radioactivity; no binding in the absence of FC. As to the method:
as §1, §2, §3, §4

Square brackets hold non-standard residues; d marks the D form. Primed or numbered codes have the meaning given here. Ends that are not written are not given here. * marks the point of attachment. Myristoyl = CCCCCCCCCCCCCC(=O)*; pS′ = not defined here

Experimental findings from US20090291905A1, “FUNGAL PHYTOTOXIN FUSICOCCIN FOR THE TREATMENT AND DIAGNOSIS OF COAGULATION-CORRELATED PATHOLOGIES” (priority 2008, published 2009) are described below.

T2 sequence (P07359 17-652, one chain of several): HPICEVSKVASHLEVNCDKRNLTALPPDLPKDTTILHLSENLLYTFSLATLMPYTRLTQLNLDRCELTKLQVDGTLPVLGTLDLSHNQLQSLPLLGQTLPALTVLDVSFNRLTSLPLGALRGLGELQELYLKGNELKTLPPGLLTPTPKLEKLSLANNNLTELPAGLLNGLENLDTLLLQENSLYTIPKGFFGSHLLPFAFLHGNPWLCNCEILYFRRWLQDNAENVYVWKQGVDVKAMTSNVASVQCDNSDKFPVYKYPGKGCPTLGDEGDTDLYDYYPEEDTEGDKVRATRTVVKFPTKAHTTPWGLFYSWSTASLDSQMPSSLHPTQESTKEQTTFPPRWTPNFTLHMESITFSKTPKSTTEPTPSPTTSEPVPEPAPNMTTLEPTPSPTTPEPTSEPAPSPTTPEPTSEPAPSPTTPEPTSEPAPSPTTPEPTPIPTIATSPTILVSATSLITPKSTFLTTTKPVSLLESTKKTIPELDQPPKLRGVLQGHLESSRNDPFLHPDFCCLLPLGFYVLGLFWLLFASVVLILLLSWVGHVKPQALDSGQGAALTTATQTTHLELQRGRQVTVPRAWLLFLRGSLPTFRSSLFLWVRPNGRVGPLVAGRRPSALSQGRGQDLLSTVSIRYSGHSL

Turning to `C=CC(C)(C)OC[C@H]1O[C@H](O[C@@H]2C3=C([C@H](C)COC(C)=O)C[C@H](O)[C@]3(C)/C=C3/[C@@H](COC)CC[C@H]3[C@@H](C)[C@H]2O)[C@H](O)[C@@H](OC(C)=O)[C@@H]1O` [FC, fusicoccin], in experiment [1] (PRP, 37° C.), the “FC concentration giving maximum agglutination” value stood at 40 µM and the Platelet agglutination/aggregation induced result was “slight but reproducible agglutination in a dose-dependent manner”. In addition, the “Effect of FC on 14-3-3 binding to immobilized bL15Vp peptide” value in experiment [2] was “strongly stimulated”. The “Effect of FC on the interaction between 14-3-3 proteins and GPIbα (135 kDa band)” value in experiment [3] was “the interaction is increased”. Besides, in experiment [4], the “Specific [3H]FC binding to platelets” value was “platelets possess specific FC binding activity”. For the same molecule, in experiment [5] (in the presence of 50 μM platelet agonist ADP (+ADP)), the “Number of platelets adherent to vWF” value was “significantly increased”. For the same molecule, in experiment [5] (resting platelets (−ADP)), the “Number of platelets adherent to vWF” value is listed as “significantly increased”. For the same molecule, the “Effect of FC on 14-3-3 binding to immobilized bD15Lp peptide” value in experiment [6] was “in the presence of the toxin binding is generated”.

Take “C13H27CONH-Ser-lle-Arg-Tyr-Ser-Gly-His-pSer-Leu (Myristoyl-SIRYSGH[pS′]L) [MPαC, reference compound]”: the “Inhibition of FC-induced platelet aggregation” value in experiment [1] (40 μM FC, 0.1 mM MPαC or 0.75 mM RGDS) is on record as “completely inhibits FC effect”.

Regarding ristocetin [reference compound], in experiment [1] (PRP, 37° C.), the Platelet agglutination/aggregation induced result is “rapid platelet agglutination”.
